Data set [1] has as its system human cervical carcinoma (CaSki) xenograft. Kind of data set: CaSki high risk HPV16 human cervical carcinoma xenograft model. The class given is in vivo, nude mice. Particulars: for % TGI (Day 44): percentage tumor growth inhibition with respect to controls / Δ% on Day 44 / Δ% Body Weight: OC246/OC974 os 2 mg/kg/day; for % TGI (Day 44): percentage tumor growth inhibition with respect to controls: 4 × week; for % TGI (Day 44): percentage tumor growth inhibition with respect to controls / Tumor Volume Day 44 (mm^3 ± SD): 3 cycles, CDDP i.v. q7d × 3, 6 mg/kg; for Δ% on Day 44 / Δ% Body Weight: CDDP i.v. 6 mg/kg; for Δ% on Day 44: control 100; for Tumor Volume Day 44 (mm^3 ± SD): OC246/OC974 os daily 4 × week, 2 mg/kg/day, control 1099 ± 503; for Δ% Body Weight: between first day of treatment (day 20) and Day 44, control +4.9. How it is done:
The aim of this study was to assess the in vivo efficacy of OC246 and OC974 on a human cervical carcinoma (CaSki) xenograft model in nude mice. OC246 and OC974 were administered oral once daily for four times with three days off, for three cycles at 2 mg/kg/dose. Cisplatin (CDDP) was used as a reference compound with three weekly intravenous (q7dx3) administrations of 6 mg/kg.

Data set [2] has as its target T1, HPV16 E7 protein (Human papillomavirus type 16, UniProt P03129).
T1 construct: endogenous in cells; host or cells: CaSki cells (HPV16-positive cervical carcinoma)
The class given is cell-based. Particulars: CaSki cells; for % Dad: adjusted degradation, CHX steady state set to 100% degradation. How it is done:
For intracellular antibody labeling, 0.5×10^6 cells are washed once with 1 ml ice-cold PBS. Cells are centrifuged at 350×g for 5 minutes at 4° C. and then fixed in 1% paraformaldehyde (1 ml/10^6 cells) for 20 minutes at 4° C. Cells are washed with 1 ml ice-cold PBS and centrifuged at 350×g for 5 minutes at 4° C. To permeabilize cells, 100% ice-cold methanol (1 ml/10^6 cells) is added to the cells and incubated for 20 minutes at 4° C. followed by centrifugation at 350×g for 5 minutes at 4° C. Cells are washed with 1 ml ice-cold PBS, centrifuged at 350×g for 5 minutes at 4° C. and resuspended in 0.1% saponin+2% FBS in PBS (ice-cold). Cells are left for 20-30 minutes at room temperature to reduce the background signal and then centrifuged at 350×g for 5 minutes at 4° C. The primary antibody (mAb_HPV16E7-1 (VS13004); concentration 1 μg/μl) is diluted in 0.1% saponin+2% FBS (dilution 0.25 μg/50 μl of incubation buffer per 1×10^6 cells (5 ng/μl)). Cells are incubated with primary antibody for 30 minutes at room temperature, washed with 0.1% saponin+2% FBS and centrifuged at 350×g for 5 minutes at 4° C. The secondary antibody (FITC conjugated goat anti-mouse IgG1-IgM, BD, cat. #555988) is diluted in 0.1% saponin+2% FBS (dilution 1:50). Cells are incubated with secondary antibody for 30 minutes at room temperature, washed once with 0.1% saponin+2% FBS, once with PBS and centrifuged at 350×g for 5 minutes at 4° C.
Cells are resuspended in 700 μl PBS prior to CF analysis with a Beckman Coulter FC 500 MPL, (excitation laser 488 nm). Data analysis is done using the Beckman Coulter software packages MXP for acquisition and CXP for data analysis which includes MFI calculation. Detection of HPV-E7 protein expression is based on morphology back-gating of FL1 histogram (logarithmic scale) with gating for dot plot FS (Forward Scatter) log/SS (Sideward Scatter) log and gating for histograms SS log.
In order to define the level of E7 protein expression and to study the extent of E7 protein steady state level reduction in E7 expressing cells in the presence of various compounds, FC analysis is implemented using the intracellular antibody labeling procedure for monoclonal antibodies to HPV E7. E7 signal intensities are analyzed from the obtained FL1 histograms at logarithmic scale. The FL1 single histogram graph represents the variation in the mean fluorescence intensity (MFI) channel for cells treated with selected compounds compared to cells not incubated with primary antibodies but incubated with secondary, which allows to test for auto-fluorescence, and non-compound treated cells as controls. Non-primary antibody-stained cells are used to set the acquisition parameters to zero. Decrease of the mean fluorescence intensity channel corresponds to a decrease in the expression of HPV16 E7 protein. Degradation of E7 in cells is calculated as percent (%) reduction in MFI(x-Me) using the following formulas: % Drel=(T−C)/T*100; i) relative degradation: % Dad=(T−C)/(T−CHX)*100; ii) adjusted degradation: • Drel=relative degradation, • Dad=adjusted degradation assuming CHX % Drel=100; • T=MFI of non-treated cells; • C=MFI of compound treated cells; • CH=MFI of cycloheximide (CHX) treated cells;
For comparison within one experiment i) the % relative degradation (Drel) is sufficient, whereas for comparison between two or more experiments ii) the adjusted degradation (Dad) is used and CHX steady state is set to a 100% degradation parameter.
1×10^6 freshly seeded CaSki cells (ATCC CRL-7915), are grown in 10 cm diameter cell culture dishes in RPMI1640, 10% FCS medium at 37° C. 5% CO2 overnight and then incubated in the presence of 10 μM Cycloheximide (CHX) 10 μM OC246 or with vehicle alone for four hours at 37° C. 5% CO2. Following this E7 protein is assessed by cytofluorimetric analysis using intracellular HPV16 E7 antibody labeling. […]

The subject of data set [3] is patient derived SARS-2 Coronavirus (COVID19). The data set can be described thus: Inhibition of Sars-CoV2 replication by RNA qPCR analysis in Vero E6 cells. To be noted: 7.5 μM, supernatants 3 days after infection, n3. The class given is cell-based, SARS-CoV-2. As to the method:
Vero E6 cells were pre-incubated with the compounds at a concentration of 7.5 μM. The cells were infected with a patient derived SARS-2 Coronavirus (COVID19). Cellular supernatants were collected 3 days after infection and centrifuged at 2000 rpm for 5 min to remove detached cells. Viral RNAs were extracted using a MagNA Pure 24 system (Roche, Germany). SARS-CoV-2 RNA genomes were quantified with the TIB MOLBIOL LightMix Assay SARS-CoV-2 RdRP RTqPCR assay kit with RNA Process Control PCR Kit (Roche). The PCR reaction setup was performed using a BRAND LHS laboratory robot to ensure quality. The amplification was performed with a LightCycler 480 II (Roche). Method used in FIG. 10.
SARV-CoV-2 antiviral activity by of VSP034 and VSP035 (n3; number of repeat of the assay at each condition). The results are shown in for DMSO (1), 7.5 μM VSP034 (2) and 7.5 μM VSP035 (3), y axis logarithmic scale. […] (FIG. 9)

The text below walks through data of patent US12630523B2, “Isoquinoline derivatives for use as antiviral and antitumour agents” (priority 2021, dated 2026).

T1 sequence (P03129 whole entry): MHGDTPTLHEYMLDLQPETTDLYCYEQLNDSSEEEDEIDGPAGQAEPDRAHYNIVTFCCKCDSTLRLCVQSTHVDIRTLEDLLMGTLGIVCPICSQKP

On to `CN1CCC(CN2C(=O)c3ccccc3[C@@H](C(=O)Nc3cccc(N4CCN(C)CC4)c3)[C@@H]2c2ccc(C(F)(F)F)cc2)CC1` (racemic) [OC974, (3R,4R)- and (3S,4S)-N-[3-(4-methylpiperazin-1-yl)phenyl]-2-[(1-methylpiperidin-4-yl)methyl]-1-oxo-3-[4-(trifluoromethyl)phenyl]-3,4-dihydroisoquinoline-4-carboxamide], for which, in data set [1], the “% TGI (Day 44): percentage tumor growth inhibition with respect to controls” value is on record as 63.9%, the “Δ% on Day 44” value is given as 23%, the “Tumor Volume Day 44 (mm^3 ± SD)” value was 307 ± 171 mm^3 and the “Δ% Body Weight” value was “+1.1%”. Also, in data set [2], the “% Dad” value came to 68%.
For the molecule `Cc1ccc(CN2C(=O)c3ccccc3[C@H](C(=O)Nc3cccc(N4CCN(C)CC4)c3)[C@@H]2c2ccc(C(F)(F)F)cc2)cc1` [OC246, N-[3-(4-methylpiperazin-1-yl)phenyl]-2-[(4-methylphenyl)methyl]-1-oxo-3-[4-(trifluoromethyl)phenyl]-1,2,3,4-tetrahydroisoquinoline-4-carboxamide], in data set [1], the “% TGI (Day 44): percentage tumor growth inhibition with respect to controls” value worked out at 66.6%, the “Δ% on Day 44” value came to 27%, the “Tumor Volume Day 44 (mm^3 ± SD)” value is 371 ± 153 mm^3 and the “Δ% Body Weight” value is recorded as “+5.5%”. Besides, the “% Drel (relative degradation)” value in data set [2] (10 μM, four hours) is reported as 43.79%. In addition, the “% Dab (adjusted degradation)” value in data set [2] (10 μM, four hours, CHX set to 100) was determined as 55.59%. Moreover, the “MFI (mean fluorescence intensity) of E7 signal” value in data set [2] (10 μM, four hours, vehicle T 8.06) turned out to be 4.53. The “% Dad” value in data set [2] came out at 56%.
Regarding `CN1CCC(CN2C(=O)c3ccccc3[C@H](C(=O)Nc3cccc(N4CCN(C)CC4)c3)[C@H]2c2ccc(C(F)(F)F)cc2)CC1` [VSP035, (3S,4S)-N-[3-(4-methylpiperazin-1-yl)phenyl]-2-[(1-methylpiperidin-4-yl)methyl]-1-oxo-3-[4-(trifluoromethyl)phenyl]-1,2,3,4-tetrahydroisoquinoline-4-carboxamide], in data set [3], the “reduction of virus load as determined by the PCR assay” value is given as “one order of magnitude”.
